This assay deals with Mus musculus. As to the kind of experiment: Antiarrhythmic activity in po dosed Swiss-Webster mouse assessed as protection against chloroform-induced ventricular fibrillation administered in 4% acacia. The assay is classed as functional. The settings on record: Heart.

Where only a bound is given, the exact number is not on record here.

As for `O=C(c1cc(OCC(F)(F)F)ccc1OCC(F)(F)F)N1CCN2CCCCC2C1` (centres undefined), the ED50 – broadly, the midpoint of the dose-response relation – is greater than 510 µmol/kg.

For `O=C(NCC1CCCCN1)c1cc(OCC(F)(F)F)ccc1OCC(F)(F)F` (centres undefined) [FLECAINIDE ACETATE], the ED50 turned out to be 48 µmol/kg.

As for `CC(NC(=O)c1cc(OCC(F)(F)F)ccc1OCC(F)(F)F)C1CCCCN1` (centres undefined), the ED50 was 19 µmol/kg.

On to `O=C(NCC1CCCCN1)c1ccccc1OCC(F)(F)F` (centres undefined), for which the ED50 stood at 283 µmol/kg.

In the case of `CCN(CC1CCCCN1)C(=O)c1cc(OCC(F)(F)F)ccc1OCC(F)(F)F` (centres undefined), the ED50 was less than 2 µmol/kg.

For `O=C(NCC1CCCCN1)c1cccc(OCC(F)(F)F)c1OCC(F)(F)F` (centres undefined), the ED50 was 149 µmol/kg.

For `O=C(NCC1CCC2CCCCC2N1)c1cc(OCC(F)(F)F)ccc1OCC(F)(F)F` (centres undefined), the ED50 amounted to 27 µmol/kg.

For the molecule `CCN(CC)CC(=O)Nc1c(C)cccc1C` [LIDOCAINE], the ED50 worked out at 495 µmol/kg.

For the molecule `O=C(NCC1CCCCN1)c1ccc(OCC(F)(F)F)c(OCC(F)(F)F)c1` (centres undefined), the ED50 is 277 µmol/kg.

`O=C(NCC1CCCCN1)c1ccc(OCC(F)(F)F)cc1` (centres undefined): the ED50 turned out to be 190 µmol/kg.

As for `C=C[C@H]1CN2CC[C@H]1C[C@@H]2[C@@H](O)c1ccnc2ccc(OC)cc12` [QUINIDINE], the ED50 came out at 217 µmol/kg.

As to `CC1CCCC(CN(C)C(=O)c2cc(OCC(F)(F)F)ccc2OCC(F)(F)F)N1` (centres undefined), the ED50 came to 9 µmol/kg.

As for `Cc1ccc(OCC(F)(F)F)c(C(=O)NCC2CCCCN2)c1` (centres undefined), the ED50 was greater than 600 µmol/kg.

For the molecule `CN1CCCCC1CNC(=O)c1cc(OCC(F)(F)F)ccc1OCC(F)(F)F` (centres undefined), the ED50 is 44 µmol/kg.

With `O=C(NCC1CCCCN1)c1cccc(OCC(F)(F)F)c1` (centres undefined), the ED50 turned out to be 76 µmol/kg.

Consider `O=C(NCC1CCc2ccccc2N1)c1cc(OCC(F)(F)F)ccc1OCC(F)(F)F` (centres undefined), for which the ED50 was greater than 450 µmol/kg.

Regarding `CCCCN(CC1CCCCN1)C(=O)c1cc(OCC(F)(F)F)ccc1OCC(F)(F)F` (centres undefined), the ED50 worked out at 32 µmol/kg.

Take `O=C(NCC1CCCNC1)c1cc(OCC(F)(F)F)ccc1OCC(F)(F)F` (centres undefined): the ED50 was 82 µmol/kg.

With `CC(C)(C)N(CC1CCCCN1)C(=O)c1cc(OCC(F)(F)F)ccc1OCC(F)(F)F` (centres undefined), the ED50 was 17 µmol/kg.

Take `O=C(NC1CCCNC1)c1cc(OCC(F)(F)F)ccc1OCC(F)(F)F` (centres undefined): the ED50 turned out to be 57 µmol/kg.

With `O=C(NCC1CCCCN1)c1c(OCC(F)(F)F)cc(OCC(F)(F)F)cc1OCC(F)(F)F` (centres undefined), the ED50 was determined as 95 µmol/kg.

For `C[N+]1(C)CCCCC1CNC(=O)c1cc(OCC(F)(F)F)ccc1OCC(F)(F)F` (centres undefined), the ED50 is greater than 395 µmol/kg.

Consider `O=C(c1cc(OCC(F)(F)F)ccc1OCC(F)(F)F)N(CC1CCCCN1)C1CCCCC1` (centres undefined), for which the ED50 was 36 µmol/kg.

As for `O=C(NCC1CCCCN1)c1cc(Cl)ccc1OCC(F)(F)F` (centres undefined), the ED50 is 230 µmol/kg.

As to `CCN1CCCCC1CNC(=O)c1cc(OCC(F)(F)F)ccc1OCC(F)(F)F` (centres undefined), the ED50 amounted to 102 µmol/kg.

For the molecule `O=C(NCC1CCCCN1)c1cc(F)ccc1OCC(F)(F)F` (centres undefined), the ED50 was determined as 270 µmol/kg.

Turning to `CCN1CCCC1CNC(=O)c1cc(OCC(F)(F)F)ccc1OCC(F)(F)F` (centres undefined), the ED50 worked out at 70 µmol/kg.

In the case of `O=C(NCC1NCCc2ccccc21)c1cc(OCC(F)(F)F)ccc1OCC(F)(F)F` (centres undefined), the ED50 is 380 µmol/kg.

As for `CCN(CC1CCCN1C)C(=O)c1cc(OCC(F)(F)F)ccc1OCC(F)(F)F` (centres undefined), the ED50 is 29 µmol/kg.

Consider `O=C(NCC1CCNCC1)c1cc(OCC(F)(F)F)ccc1OCC(F)(F)F`, for which the ED50 turned out to be 149 µmol/kg.

In the case of `CCN(CC)CCNC(=O)c1ccc(N)cc1` [PROCAINAMIDE], the ED50 came to 1030 µmol/kg.

For `CN(CC1CCCCN1)C(=O)c1cc(OCC(F)(F)F)ccc1OCC(F)(F)F` (centres undefined), the ED50 stood at 24 µmol/kg.

As to `O=C(NCC1CCCCN1)c1c(OCC(F)(F)F)cccc1OCC(F)(F)F` (centres undefined), the ED50 was found to be 271 µmol/kg.

On to `O=C(NC1CCNCC1)c1cc(OCC(F)(F)F)ccc1OCC(F)(F)F`, for which the ED50 came to 144 µmol/kg.

`CC[N+]1(C)CCCCC1CNC(=O)c1cc(OCC(F)(F)F)ccc1OCC(F)(F)F` (centres undefined): the ED50 is greater than 380 µmol/kg.

Consider `O=C(NCC1CCCCN1)c1ccc(OCC(F)(F)F)cc1OCC(F)(F)F` (centres undefined), for which the ED50 was 244 µmol/kg.

For the molecule `O=C(NCC1CCCCN1)c1cc(OCC(F)(F)F)cc(OCC(F)(F)F)c1` (centres undefined), the ED50 was determined as 388 µmol/kg.

With `O=CN1CCCCC1CNC(=O)c1cc(OCC(F)(F)F)ccc1OCC(F)(F)F` (centres undefined), the ED50 is greater than 510 µmol/kg.

As to `CC1CCCC(CNC(=O)c2cc(OCC(F)(F)F)ccc2OCC(F)(F)F)N1` (centres undefined), the ED50 worked out at 22 µmol/kg.
